From PubChem BioAssay (NCI)
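Protocol summary: plate cells (96-well), add compound at 5 concentrations, incubate 48 h, interpolate endpoints linearly. TGI denotes the concentration required for complete inhibition of growth.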

How the values were obtained:
Experiment in all cases: inhibition of tumour cell growth, NCI panel, 48 h
[1] = test system: OVCAR-8 ovarian
[2] = test system: T-47D breast
[3] = test system: SF-539 CNS
[4] = test system: ACHN renal
[5] = test system: MCF7 breast
[6] = test system: OVCAR-5 ovarian
[7] = test system: TK-10 renal
[8] = test system: MDA-MB-231 breast
[9] = test system: HL-60(TB) leukemia
[10] = test system: NCI-H522 lung

Structure (SMILES) | TGI [1] | TGI [2] | TGI [3] | TGI [4] | TGI [5] | TGI [6] | TGI [7] | TGI [8] | TGI [9] | TGI [10]
CCOP(=O)(OCC)/C(=C/c1cccs1)CC(C)=O | > 100 µM | > 100 µM | > 100 µM | > 100 µM | > 100 µM | > 100 µM | > 100 µM | > 100 µM |  | 
O=C1CC(=O)n2cnc3cccc(c32)N1 | > 100 µM | > 100 µM | > 100 µM |  | > 100 µM | > 100 µM |  | > 100 µM | > 100 µM | 
CN(Cc1cnc2nc(N)nc(N)c2n1)c1ccc(C(=O)NC(CO)CCCO)cc1 (centres undefined) | > 100 µM | > 100 µM | > 100 µM | > 100 µM | > 100 µM | > 100 µM | > 100 µM | > 100 µM | > 100 µM | 
C=C(C)[C@H]1C2=CC(C)=C(O2)[C@@H](O[C@@H]2c3oc(cc3C)[C@H](C(=C)C)[C@H]3C=C(CC[C@H]2C(=C)C)C(=O)O3)[C@H](C(=C)C)CCC2=C[C@H]1OC2=O | > 100 µM | > 100 µM |  | > 100 µM | > 100 µM | > 100 µM | > 100 µM | > 100 µM | > 100 µM | > 100 µM
CC1(C)CC(=O)C2(CC(CSc3ccccc3)C(CS(=O)(=O)c3ccccc3)C2)C(=O)C1 (centres undefined) | > 100 µM | > 100 µM | > 100 µM | > 100 µM | > 100 µM | > 100 µM | > 100 µM | > 100 µM |  | > 100 µM
COc1ccc(C(=O)CC(c2ccccc2)[C@H]2C(c3ccc(OC)cc3)=Nc3c(nc(SC)n(C)c3=O)NC2c2ccccc2)cc1 (some centres undefined) |  | > 100 µM | > 100 µM |  | > 100 µM | > 100 µM | > 100 µM | > 100 µM |  | > 100 µM
CC(C)/C(Cl)=N\OC(NC(=O)P(=O)(c1ccccc1)c1ccccc1)(C(F)(F)F)C(F)(F)F | 32 µM | > 100 µM | 27.6 µM | 16.3 µM | 34 µM | 48.3 µM | 25.2 µM | 34.4 µM | 30.9 µM | 
CCOC(=O)c1cc(C)nc2c1c(=O)n(-c1ccccc1)c(=O)n2CCCCN1CCN(c2ccccc2)CC1 | > 100 µM | > 100 µM |  | > 100 µM | > 100 µM | > 100 µM | > 100 µM | > 100 µM | 49.1 µM | > 100 µM
c1ccc(CN2CCC(Nc3ccccc3)(c3nnnn3Cc3ccccc3)CC2)cc1 | > 100 µM | 72.4 µM | 41.5 µM | > 100 µM | 88.2 µM | 76.1 µM | > 100 µM | 88.9 µM | 25.9 µM | 
Cc1c(C(=O)OCc2ccccc2)[n+](=O)c2cc(Cl)c(Cl)cc2n1[O-] | 46.5 µM | 23.6 µM | 55.9 µM | 53.7 µM | 54.4 µM | 39.2 µM | 40.3 µM | 38.2 µM | 27.3 µM | 
O=C(N/N=C/C=C/c1ccccc1)c1ccccc1Nc1ccccc1C(=O)N/N=C/C=C/c1ccccc1 | > 100 µM | > 100 µM |  | > 100 µM | > 100 µM | > 100 µM | > 100 µM | > 100 µM | > 100 µM | 
Nc1nc(Cl)cc(NC23CC4CC(CC(C4)C2)C3)n1 | > 100 µM | > 100 µM | > 100 µM | > 100 µM | > 100 µM | > 100 µM |  | > 100 µM |  | > 100 µM
CC(C)C(C/C=C1\CC(CO)(COC(=O)C2CCCCC2)OC1=O)C(C)C (centres undefined) | 35.8 µM | 48 µM | 36.3 µM | 32.3 µM | 39 µM | 41.8 µM | 41.8 µM | 36.1 µM |  | 31.8 µM
Cn1c(=O)oc2nc(-c3ccccc3)cc(C(F)(F)F)c21 | > 100 µM | > 100 µM | > 100 µM | > 100 µM | > 100 µM | > 100 µM | > 100 µM | > 100 µM |  | > 100 µM
C#CCn1c(=O)c(C)cn(/C(=C\C(=O)OCC)C(=O)OCC)c1=O | 13.2 µM | 5.95 µM | 4.25 µM | 3.22 µM | 11.9 µM | 23.9 µM | 3.44 µM | 31.2 µM | > 100 µM | 
CCCCCCCCCCCCCCCCCCNc1nc(=O)n(C2CC(O)C(COP(=O)(O)O)O2)cc1F (centres undefined) | > 100 µM | > 100 µM | > 100 µM | > 100 µM | > 100 µM | > 100 µM | > 100 µM | > 100 µM |  | > 100 µM
CCN(CC)C(=S)SS(=O)(=O)c1cccc(N)c1 | > 100 µM | > 100 µM | > 100 µM | > 100 µM | > 100 µM | > 100 µM | > 100 µM | > 100 µM |  | > 100 µM
COc1cccc(N=N/C(=N\NC(=O)c2ccc(C)cc2)c2ccc(N(CCC#N)CCC#N)cc2C)c1 | > 100 µM | > 100 µM | > 100 µM | > 100 µM | > 100 µM | > 100 µM | > 100 µM | > 100 µM |  | 
